Series [1] can be described thus: cytotoxicity toward NIH3T3 fibroblasts, dose response, counter-screen, cell-based, ATP luminescence, mouse fibroblasts (AID 2010).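 Also: cells exposed to compound for about 90 hours before reading.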 It counts as functional.
Series [2] can be described thus: inhibitors of intracellular T. cruzi replication, confirmation, NIH3T3 host cells, beta-gal luminescence (AID 2044).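 Also: intracellular parasites grown in NIH/3T3 mouse fibroblasts as host cells; luminescent beta-galactosidase reporter signal from transgenic T. cruzi replicating inside host cells; inhibitors lower the luminescence signal.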 It counts as functional, cell-based.
A further series concerns the target Cytochrome P450 3A4 (Homo sapiens, UniProt P08684).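 Also: CYP3A4 tested as one member of a cytochrome P450 panel screen.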
Series [3] is described as follows: inhibitors of firefly luciferase expression or activity, dose response, H4 neuroglioma cells, luminescence (AID 1990). The series is classed as functional, cell-based.
Series [4] can be described thus: Luminescence Cell-Based Dose Response HTS to Identify Inhibitors of 5'UTR Stem-Loop Driven Prion Protein mRNA Translation in H4 Neuroglioblastoma Cells. [Related pubchem assays: 1827 (Project Summary), 1813 (Primary HTS)]. The series is classed as functional.
The nature of series [5]: inhibitors of SNCA 5'UTR-driven reporter translation, confirmation, H4 neuroglioma cells, luminescence (AID 1988). It counts as functional, cell-based.
Series [6] concerns Streptococcus sp. 'group A'. The experiment in a line: growth inhibition of control SK(-) GAS strain, dose response, counter-screen for streptokinase expression inhibitor project, luminescence, kanamycin, BacTiterGlo, confirmation (AID 1900). Conditions: read-out: EC50. The series is classed as functional, organism-based. (Counterscreens check selectivity or assay interference.)

In another series the test system is Streptococcus. The experiment in a line: Group A Streptococcus viability loss, dose response, counter-screen for streptokinase expression inhibitor project, luminescence, BacTiterGlo (AID 1915).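 Also: potency for reduction of bacterial viability or growth.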 It counts as functional, organism-based.
Series [7] is described as follows: Luminescence Cell-Based Dose Retest to Confirm Inhibitors of Cancer Stem Cells. [Related pubchem assays (depositor defined):AID2717, AID2721]. It counts as functional, Homo sapiens. The settings on record: Homo sapiens.
A further series deals with Cytochrome P450 2C19 (Homo sapiens, UniProt P33261). The experiment in a line: Cytochrome panel assay with activity outcomes. Panel member name: p450-cyp2c19 Compounds with AC50 equal or less than 10 uM are considered active. The series is classed as functional.
Cytochrome P450 2C19, sequence (P33261 whole entry): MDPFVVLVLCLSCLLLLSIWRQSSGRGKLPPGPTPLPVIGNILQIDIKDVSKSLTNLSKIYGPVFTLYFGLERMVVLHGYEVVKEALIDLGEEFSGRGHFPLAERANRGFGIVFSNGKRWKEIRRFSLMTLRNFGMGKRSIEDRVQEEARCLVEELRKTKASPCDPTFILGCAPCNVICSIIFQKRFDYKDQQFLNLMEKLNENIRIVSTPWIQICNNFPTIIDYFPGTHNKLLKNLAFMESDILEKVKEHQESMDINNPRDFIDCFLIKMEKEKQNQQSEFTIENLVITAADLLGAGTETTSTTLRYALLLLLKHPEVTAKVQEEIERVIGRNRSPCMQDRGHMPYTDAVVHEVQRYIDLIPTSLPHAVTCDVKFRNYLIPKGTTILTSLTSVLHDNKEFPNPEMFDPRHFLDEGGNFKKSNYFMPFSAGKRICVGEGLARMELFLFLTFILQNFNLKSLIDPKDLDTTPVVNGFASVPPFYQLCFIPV

In general, EC50 refers to the concentration giving half of the maximal effect. The term AC50 denotes the midpoint of the concentration-response curve, whichever way the signal moves.

The structures appear in SMILES notation. Values joined by “and” are separate entries in the source; they are usually repeats but may differ in a detail not shown here. Equal values may be shown once. Active and inactive are the calls of the source.

Cytochrome P450 3A4, sequence (P08684 whole entry): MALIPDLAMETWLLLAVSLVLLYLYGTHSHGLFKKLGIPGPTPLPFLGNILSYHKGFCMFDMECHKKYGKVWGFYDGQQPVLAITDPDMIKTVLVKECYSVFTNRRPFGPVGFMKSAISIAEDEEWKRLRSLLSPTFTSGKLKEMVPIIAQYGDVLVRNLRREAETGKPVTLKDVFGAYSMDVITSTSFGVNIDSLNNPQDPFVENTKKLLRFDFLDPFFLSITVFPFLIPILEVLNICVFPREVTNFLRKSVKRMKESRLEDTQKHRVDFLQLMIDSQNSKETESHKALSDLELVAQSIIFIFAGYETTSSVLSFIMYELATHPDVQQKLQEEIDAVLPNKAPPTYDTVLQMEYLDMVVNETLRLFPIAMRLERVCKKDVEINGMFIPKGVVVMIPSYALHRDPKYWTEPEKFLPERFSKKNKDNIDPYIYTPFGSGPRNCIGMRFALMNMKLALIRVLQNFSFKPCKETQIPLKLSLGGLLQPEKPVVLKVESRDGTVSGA

As to `CN(C)c1ccc(C2CNC(c3ccc(Cl)c([N+](=O)[O-])c3)c3[nH]c4ccccc4c32)cc1` (centres undefined), the values for the EC50 in series [1] and in series [2] were > 60 µM (not active) and 1.88 µM (active), respectively.
Consider `CCC(C)NS(=O)(=O)c1ccc(S(=O)(=O)N(CCc2ccc(OC)c(OC)c2)Cc2cccs2)cc1` (centres undefined), for which the results for the EC50 in [1] and in series [2] were > 60 µM (not active) and 1.72 µM (active), respectively.
With `COCCNc1nc(-c2ccccc2CN(C)C)nc2ccccc12`, the AC50 at Cytochrome P450 3A4 is 15.8 µM (inconclusive).
With `CCN(CC)c1nc(Nc2ccc(Cl)cc2)nc(OCC#N)n1`, the EC50 in [3] is 15 µM (active); in [4], 14.6 µM (active); in series [5], 16 µM (active).
As to `CCOC(=O)Nc1ccc(OCc2nnc3c4ccccc4c(C)nn23)cc1`, the half-maximal effective concentration (EC50) in series [6] is < 0.06 µM (active); with Streptococcus, 0.676 µM (active).
With `CC1(C)Cc2c(sc3c2c(=N)n(Cc2ccco2)c(=O)n3Cc2ccc(Cl)cc2)CO1`, the values for the EC50 in [3], in series [4] and in [5] were 14.2 µM (active), > 120 µM (not active) and 13.8 µM (active), respectively.
As for `Cc1ccc(C)c(NC(S)=NN=C(S)Nc2ccc(C(C)C)cc2)c1`, the EC50 in series [1] was > 60 µM (not active); in series [2] it was 2.69 µM (active).
Regarding `O=C(NCc1ccco1)c1cc(-c2ccc3c(c2)OCO3)on1`, in series [7], the AC50 was 1.14 µM (active).
On to `N#CCSc1nc2c(c(=O)n1Cc1ccco1)C1(CCCC1)Cc1ccccc1-2`, for which, in series [7], the AC50 is 0.686 µM (active).
For `COC(=O)Nc1nc2cc(SC(C)C)ccc2[nH]1`, on Cytochrome P450 2C19 (read-out: AC50), the concentration at half-maximal activity (AC50) is 10 µM (inconclusive).
As to `O=c1c(-c2cccc(F)c2)nc2cncnc2n1Cc1ccccc1`, the AC50 at Cytochrome P450 3A4 was 10 µM (inconclusive).
In the case of `CC(C)CN1CC[C@@]2(CCCN(C(=O)c3ccco3)C2)C1`, the concentration at half-maximal activity (AC50) on Cytochrome P450 3A4 is 12.6 µM (inconclusive).
Take `COc1ccc(Oc2ncc3nc(-c4ccc(Cl)cc4)c(=O)n(C)c3n2)cc1`: the AC50 at Cytochrome P450 3A4 is 5.01 µM (inconclusive).
`O=C1NC[C@@H](Cc2cccc3ccccc23)N(CC2(c3ccccc3)CC2)C1=O`: the EC50 in series [3], in series [4] and in [5] was > 120 µM (not active) in each case.
Regarding `Cn1c(=O)c2c(nc(NCCNc3nc4c(c(=O)n(C)c(=O)n4C)n3C)n2C)n(C)c1=O`, the AC50 entry at Cytochrome P450 2C19 is on record as “inconclusive”.
With `Cc1nn(S(=O)(=O)c2ccc([N+](=O)[O-])cc2)c(C)c1Sc1ccccc1`, the EC50 in [1] is > 60 µM (not active); in series [2] it was 1.16 µM (active).
For the compound `Cc1ccc2nc(O)c(C(c3nnnn3C(C)(C)C)N(Cc3ccco3)CC3CCCO3)cc2c1` (centres undefined), the results for the EC50 in series [1] and in series [2] were > 60 µM (not active) and 3.14 µM (active), respectively.
Regarding `NC(=O)CC(NC(=O)Cc1cccc2ccccc12)c1ccc(NCc2ccc(F)cc2)c([N+](=O)[O-])c1` (centres undefined), the AC50 in series [7] was 5.46 µM (active).
Take `COCCn1c(=O)c(-c2cccc(Cl)c2)nc2cncnc21`: the AC50 on Cytochrome P450 3A4 was 15.8 µM (inconclusive).
For the compound `N#CCCn1c(=O)c(CCc2ccccc2)nc2cnc(Nc3ccccc3)nc21`, on Cytochrome P450 3A4, the AC50 was 1 µM (inconclusive).
For the compound `Cc1c(-c2nc(N)nc(Nc3ccc(F)cc3)n2)oc2ccccc12`, the EC50 was 13.4 µM (active) in series [1] and 2.76 µM (active) in series [2].
Consider `Oc1nc2ccc(Cl)cc2c(-c2ccccc2)c1SC(=S)N1CCOCC1`, for which the 50% effective concentration (EC50) in series [6] was 0.827 µM (active); in the series on Streptococcus, 1.3 µM (active).
With `CCCCN(CC)CCCNC(=O)c1cn(-c2ccc(OC)cc2)c(=O)c2ccccc12`, the EC50 in [1] is > 60 µM (not active); in series [2] it was 0.496 µM (active).
Regarding `O=C(c1ccco1)N1CCC2(CC1)CN(c1cccc(-c3ccccc3)c1)C2`, the concentration at half-maximal activity (AC50) at Cytochrome P450 2C19 (read-out: AC50) is 3.98 µM (inconclusive).
With `Nc1ccc(Oc2ccccc2-c2ccccc2)cc1`, the EC50 in series [3] is 2.08 µM (active); in series [4], 9.75 µM (active); in [5], 5.17 µM (active).
Consider `O=C(CSC(=S)N1CCCCC1)c1ccccc1`, for which the EC50 in series [4] was > 60 µM (not active); in [5] it was 10.8 µM (active).
Regarding `C/C(CCC(=O)OC[C@@H]1O[C@H](C#Cc2ccccc2)C=C[C@@H]1Oc1ccc(C)cc1)=N/OC[C@@H](O)[C@H]1O[C@H]2OC(C)(C)O[C@H]2[C@@H]1O`, at Cytochrome P450 2C19 (read-out: AC50), the AC50 was 6.31 µM (inconclusive).
Regarding `C=C1SC(Nc2c(C)cccc2C)=NC12CCCCC2`, the EC50 in series [1] was 4.83 µM (active); in series [2], 0.795 µM (active).
As for `CCc1c(C)c(C#N)c2nc3ccccc3n2c1N1CCN(c2cc(C)ccn2)CC1`, the AC50 at Cytochrome P450 2C19 (read-out: AC50) is 10 µM (inconclusive).
As for `COc1cccc(CN2CCCC(CNC(=O)c3ccc(F)cc3)C2)c1OC` (centres undefined), the EC50 in [1] was > 60 µM (inconclusive); in [2], 0.704 µM (active).
Turning to `COc1ccc(OC)c(C(c2nnnn2C(C)(C)C)N2CCc3ccccc3C2)c1` (centres undefined), the EC50 is 5.8 µM (active) in series [1] and 2.77 µM (active) in [2].
As to `O=c1c2c3c(sc2nc(NCCO)n1Cc1ccco1)CCCCC3`, the AC50 in [7] is 1.8 µM (active).
`CO/C(O)=C1/C(C)=Nc2ncnn2C1c1cccnc1` (centres undefined): the AC50 on Cytochrome P450 3A4 was 39.8 µM (inconclusive).
Turning to `CCOc1ccccc1-c1nc(-c2ccc(NC(=O)Cc3ccccc3OC)cc2)no1`, the EC50 in series [1] is 10.2 µM (active); in [2] it was 1.21 µM (active).
Regarding `O=C(CSc1[nH]cnc2ncnc1-2)Nc1nnc(SCc2ccc(Cl)c(Cl)c2)s1`, the AC50 in [7] was 7.23 µM (active).
As to `Cc1cc2c(c(=O)n1C1CC1)C(c1cccc(Cl)c1)C(C#N)=C(N)O2` (centres undefined), the EC50 in series [3], in series [4] and in series [5] was > 120 µM (not active) each time.
Consider `Cc1cc(C)cc(NC(=O)CSc2nc3c(oc4ccccc43)c(=O)n2-c2ccccc2)c1`, for which the concentration giving a half-maximal response (EC50) was > 60 µM (inconclusive) in series [1] and 1.26 µM (active) in series [2].
Regarding `COCC(=O)N1CCC[C@@]2(CCN(C(=O)Nc3cccc(F)c3)C2)C1`, on Cytochrome P450 3A4, the half-maximal activity concentration (AC50) was 25.1 µM (inconclusive).
With `COc1ccc(-n2nc(C(=O)NCC(=O)N3CCN(Cc4ccc5c(c4)OCO5)CC3)c3ccccc3c2=O)cc1OC`, the EC50 in [3] is 21.3 µM (active); in series [4], > 120 µM (not active); in [5] it was > 120 µM (not active).
Take `COc1ccc(C(=O)C[n+]2nc(CNc3ccc(Br)cc3)n3c2CCCCC3)cc1`: the EC50 in series [1] was > 60 µM (not active); in [2], 0.898 µM (active).
For `O=C(NC1CCCCC1)Oc1cc2oc(=O)sc2cc1Br`, the EC50 in series [3], in [4] and in series [5] was > 120 µM (not active) each time.
Take `CCOc1ccc(N(C)Cc2cc(=O)oc3ccc(OC)cc23)cc1`: the results for the EC50 in series [1] and in series [2] were > 60 µM (not active) and 0.798 µM (active), respectively.
`Cc1ccc(NC(=O)CN2CCC(NC(=O)Cc3ccccc3)CC2)cc1C`: the AC50 on Cytochrome P450 3A4 is 14.1 µM (inconclusive).
Turning to `CCCc1cc2c(n1Cc1ccc(C)cc1)C(C)C1CN(C(=O)c3ccccc3)C(C)(C(=O)OC)C21` (centres undefined), the AC50 at Cytochrome P450 2C19 (read-out: AC50) was 25.1 µM (inconclusive).
For `CC(C)(CN1CCN(Cc2ccccc2)CC1)NS(=O)(=O)c1ccccc1`, the AC50 in series [7] was 12.7 µM (active).
As to `CSc1nc2c(c(C(F)(F)F)n1)CC(C)CC2` (centres undefined), the AC50 at Cytochrome P450 2C19 (read-out: AC50) was 39.8 µM (inconclusive).
For `Cc1ccc(Cl)cc1NC(=S)N/N=C/c1cccc2ccccc12`, the values for the EC50 in series [1] and in [2] were 0.425 µM (active) and 2.97 µM (active), respectively. Moreover, the AC50 in [7] is 0.167 µM (active).
As to `CN([C@@H](Cc1ccc(OS(=O)(=O)c2cccc3cnccc23)cc1)C(=O)N1CCN(c2ccccc2)CC1)S(=O)(=O)c1cccc2cnccc12`, the EC50 is 11.2 µM (active) in series [1] and 0.4 µM (active) in series [2].
For the compound `Cc1ccc(S(=O)(=O)c2c(N)n(/N=C/c3ccco3)c3nc4ccccc4nc23)cc1`, the EC50 in series [1] is > 60 µM (not active); in [2], 1.8 µM (active).
On to `CC(=O)c1c(/N=C/N(C)C)nc(C)nc1-c1ccccc1`, for which, on Cytochrome P450 2C19 (read-out: AC50), the concentration at half-maximal activity (AC50) was 25.1 µM (inconclusive).
For the compound `CCOC(=O)C1=C(c2ccccc2)NC(SCC(=O)Nc2ccc(C)cc2)=C(C#N)C1c1ccco1` (centres undefined), the figures for the EC50 in [1] and in series [2] were > 60 µM (not active) and 2.91 µM (active), respectively.
Consider `Cn1cnc2c(NCc3ccccc3)nc(NCCO)nc21` [OLOMOUCINE], for which the AC50 at Cytochrome P450 3A4 is 15.8 µM (inconclusive).
For the compound `CCCC(C(=O)OCCN(CC)CC)(c1ccccc1)c1ccccc1` [PROADIFEN], the AC50 at Cytochrome P450 2C19 (read-out: AC50) was 7.94 µM (inconclusive) and 3.98 µM (inconclusive).
